Results from patent US20110092476A1, “Bicycloheteroaryl compounds as P2X7 modulators and uses thereof” (Renovis, Inc., priority 2006, published 2011).

The molecules below were run against T1, P2X7 receptor (Homo sapiens, UniProt Q99572) (assay: IL-1β release assay in differentiated THP-1 cells stimulated with BzATP (Example 9)). Details: 0.1 μM compound (symbols *); differentiated THP-1 cells, BzATP 250 uM; read-out: IL-1β % Inhib. @ 0.3 or 0.1 uM.
T1 construct: host or cells: THP-1 cells differentiated with LPS and IFN-γ
T1 sequence (Q99572 1-595): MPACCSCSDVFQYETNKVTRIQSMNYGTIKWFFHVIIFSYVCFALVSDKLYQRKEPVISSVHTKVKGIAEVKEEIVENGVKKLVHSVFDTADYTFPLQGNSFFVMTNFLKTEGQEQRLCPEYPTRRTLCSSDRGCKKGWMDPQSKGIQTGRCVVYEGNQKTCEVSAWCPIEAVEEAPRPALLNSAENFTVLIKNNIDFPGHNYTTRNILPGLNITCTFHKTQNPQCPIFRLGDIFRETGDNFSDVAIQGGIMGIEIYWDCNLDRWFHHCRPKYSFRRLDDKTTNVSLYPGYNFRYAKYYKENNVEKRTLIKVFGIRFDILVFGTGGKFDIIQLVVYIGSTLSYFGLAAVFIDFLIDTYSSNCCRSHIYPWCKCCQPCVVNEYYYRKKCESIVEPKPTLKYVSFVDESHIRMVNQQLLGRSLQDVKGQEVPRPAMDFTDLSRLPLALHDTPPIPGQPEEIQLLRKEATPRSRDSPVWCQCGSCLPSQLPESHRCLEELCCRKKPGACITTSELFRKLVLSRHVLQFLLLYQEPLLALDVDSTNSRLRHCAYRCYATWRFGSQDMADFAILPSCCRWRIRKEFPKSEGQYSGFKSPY
Type: cell-based
Method: THP-1 cells (ATCC Cat #285-IF-100) are plated in 96 well plates at a concentration of 200,000 cells per well and allowed to differentiate in RPMI-1640 media (ATCC Cat #30-2001) containing 10% FBS, 100 IU/mL penicillin, 100 ug/mL streptomycin, 100 ng/mL LPS and 100 ng/mL IFN-γ for 16 hours. Following differentiation, the cells are treated for an additional 2 hours in RPMI-1640 media containing 100 IU/mL penicillin, 100 ug/mL streptomycin and fresh LPS at 100 ng/mL. The cells are then pretreated for 30 minutes with the compound of interest at the appropriate concentration in RPMI media containing 100 IU/mL penicillin, 100 ug/mL streptomycin. Following the pretreatment 2′,3′-O-(4-benzoylbenzoyl)-adenosine 5′-triphosphate (Sigma Aldrich Cat #B6396) is added to a final concentration of 250 uM and the cells are incubated for an additional 45 minutes. 30 uL of cell supernatant is then collected and IL-1β levels determined via ELISA (R&D systems Cat. #HSLB50) according to manufacturer's recommendations using the Tecan Safire plate reader. Background adjusted IL-1β levels of drug treated and non-treated cells are used to calculate the percent inhibition.
The compounds set forth in Table 1 were tested for activity in a cellular model as described herein. Specifically, cells were pretreated with differing amounts of the compound under test and released IL-1β determined as in Example 9, above. Measurements were made and IC50 values, presented in Table 2, below, were determined by fitting the data to a four parameter logistic equation using GraphPad Prism software (GraphPad Software, Inc). The equation may be expressed by the following formula:
Y=Bottom+(Top−Bottom)/(1+10̂((Log EC50−X)*HillSlope))
Where X is the logarithm of concentration, Y is the response and Y starts at Bottom and goes to Top with a sigmoid shape.

| SMILES | inhibition at 0.1 µM |
| --- | --- |
| CC(O)Cn1ccc2c(NC(=O)C(C)c3ccccc3)cccc2c1=O (stereo not drawn) [Compound 148] | 0 to 25% |
| COc1ccccc1CCC(=O)Nc1cccc2c(=O)n(CC(C)O)ccc12 (stereo not drawn) [Compound 149] | 0 to 25% |
| COc1ccc(CCC(=O)Nc2cccc3c(=O)n(CC(C)O)ccc23)cc1 (stereo not drawn) [Compound 150] | 26 to 50% |
| CC(O)Cn1ccc2c(NC(=O)Cc3cccc4ccccc34)cccc2c1=O (stereo not drawn) [Compound 151] | 0 to 25% |
| CC(O)Cn1ccc2c(NC(=O)c3ccc4ccccc4c3)cccc2c1=O (stereo not drawn) [Compound 152] | 0 to 25% |
| CC(O)Cn1ccc2c(NC(=O)Cc3ccccc3F)cccc2c1=O (stereo not drawn) [Compound 153] | 0 to 25% |
| CC(O)Cn1ccc2c(NC(=O)Cc3ccccc3Cl)cccc2c1=O (stereo not drawn) [Compound 154] | 0 to 25% |
| COc1ccccc1CC(=O)Nc1cccc2c(=O)n(CC(C)O)ccc12 (stereo not drawn) [Compound 155] | 0 to 25% |
| COc1ccc(OC)c(CC(=O)Nc2cccc3c(=O)n(CC(C)O)ccc23)c1 (stereo not drawn) [Compound 156] | 26 to 50% |
| Cc1ccccc1CC(=O)Nc1cccc2c(=O)n(CC(C)O)ccc12 (stereo not drawn) [Compound 157] | 0 to 25% |
| COc1cccc(CC(=O)Nc2cccc3c(=O)n(CC(C)O)ccc23)c1 (stereo not drawn) [Compound 158] | 0 to 25% |
| Cc1cccc(CC(=O)Nc2cccc3c(=O)n(CC(C)O)ccc23)c1 (stereo not drawn) [Compound 159] | 0 to 25% |
| COc1ccc(CC(=O)Nc2cccc3c(=O)n(CC(C)O)ccc23)cc1 (stereo not drawn) [Compound 160] | 0 to 25% |
| CCOc1ccc(CC(=O)Nc2cccc3c(=O)n(CC(C)O)ccc23)cc1 (stereo not drawn) [Compound 161] | 0 to 25% |
| Cc1ccc(CC(=O)Nc2cccc3c(=O)n(CC(C)O)ccc23)cc1 (stereo not drawn) [Compound 162] | 0 to 25% |
| CC(O)Cn1ccc2c(NC(=O)CCCc3ccccc3)cccc2c1=O (stereo not drawn) [Compound 163] | 0 to 25% |
| CC(O)Cn1ccc2c(NC(=O)c3cc4ccccc4o3)cccc2c1=O (stereo not drawn) [Compound 164] | 0 to 25% |
| CC(O)Cn1ccc2c(NC(=O)Cc3ccc4c(c3)OCO4)cccc2c1=O (stereo not drawn) [Compound 165] | 0 to 25% |
| COc1cc(CC(=O)Nc2cccc3c(=O)n(CC(C)O)ccc23)cc(OC)c1 (stereo not drawn) [Compound 166] | 0 to 25% |
| COc1c(C)cc(C(=O)Nc2cccc3c(=O)n(CC(C)O)ccc23)cc1C (stereo not drawn) [Compound 167] | 0 to 25% |
| Cc1ccc(C(=O)Nc2cccc3c(=O)n(CC(C)O)ccc23)cc1Cl (stereo not drawn) [Compound 168] | 0 to 25% |
| Cc1cc(Cl)ccc1C(=O)Nc1cccc2c(=O)n(CC(C)O)ccc12 (stereo not drawn) [Compound 169] | 0 to 25% |
| CC(O)Cn1ccc2c(NC(=O)c3cccc4c3OCCO4)cccc2c1=O (stereo not drawn) [Compound 170] | 26 to 50% |
| CC(O)Cn1ccc2c(NC(=O)c3ccc4c(c3)OCCCO4)cccc2c1=O (stereo not drawn) [Compound 171] | 0 to 25% |
| Cc1c(Cl)cccc1C(=O)Nc1cccc2c(=O)n(CC(C)O)ccc12 (stereo not drawn) [Compound 172] | 51 to 75% |
| Cc1cc(C)cc(CC(=O)Nc2cccc3c(=O)n(CC(C)O)ccc23)c1 (stereo not drawn) [Compound 173] | 26 to 50% |

Now from value to molecule:

| inhibition at 0.1 µM | SMILES |
| --- | --- |
| 0 to 25% | COc1ccc(CC(=O)Nc2cccc3c(=O)n(CC(C)O)ccc23)c(OC)c1 (stereo not drawn) [Compound 174] |
| 0 to 25% | Cc1cc(C(=O)Nc2cccc3c(=O)n(CC(C)O)ccc23)ccc1F (stereo not drawn) [Compound 175] |
| 0 to 25% | CCOc1ccccc1CC(=O)Nc1cccc2c(=O)n(CC(C)O)ccc12 (stereo not drawn) [Compound 176] |
| 0 to 25% | COc1ccc(CC(=O)Nc2cccc3c(=O)n(CC(C)O)ccc23)cc1C (stereo not drawn) [Compound 177] |
| 0 to 25% | Cc1ccc(Cl)c(C(=O)Nc2cccc3c(=O)n(CC(C)O)ccc23)c1 (stereo not drawn) [Compound 178] |
| 0 to 25% | Cc1ccc(Cl)cc1C(=O)Nc1cccc2c(=O)n(CC(C)O)ccc12 (stereo not drawn) [Compound 179] |
| 0 to 25% | Cc1cccc(CCC(=O)Nc2cccc3c(=O)n(CC(C)O)ccc23)c1 (stereo not drawn) [Compound 180] |
| 0 to 25% | CC(O)Cn1ccc2c(NC(=O)c3cc4cc(Cl)ccc4o3)cccc2c1=O (stereo not drawn) [Compound 181] |
| 0 to 25% | Cc1cccc(C(=O)Nc2cccc3c(=O)n(CC(C)O)ccc23)c1Cl (stereo not drawn) [Compound 182] |
| 26 to 50% | COc1ccc(C(=O)Nc2cccc3c(=O)n(CC(C)O)ccc23)cc1C (stereo not drawn) [Compound 183] |
| 0 to 25% | Cc1ccc(CCC(=O)Nc2cccc3c(=O)n(CC(C)O)ccc23)c(C)c1 (stereo not drawn) [Compound 184] |
| 0 to 25% | CCOc1ccc(C(=O)Nc2cccc3c(=O)n(CC(C)(C)O)ccc23)c(O)c1 [Compound 185] |
| 0 to 25% | COc1ccc(C(=O)Nc2cccc3c(=O)n(CC(C)(C)O)ccc23)c(C)c1 [Compound 186] |
| 0 to 25% | Cc1ccccc1CCC(=O)Nc1cccc2c(=O)n(CC(C)(C)O)ccc12 [Compound 187] |
| 0 to 25% | CC(C)(O)Cn1ccc2c(NC(=O)c3ccc(-c4ccccc4)o3)cccc2c1=O [Compound 188] |
| 0 to 25% | COc1cccc(CCC(=O)Nc2cccc3c(=O)n(CC(C)(C)O)ccc23)c1 [Compound 189] |
| 0 to 25% | Cc1cc(C)c(CC(=O)Nc2cccc3c(=O)n(CC(C)(C)O)ccc23)c(C)c1 [Compound 190] |
| 0 to 25% | Cc1ccc(C)c(CC(=O)Nc2cccc3c(=O)n(CC(C)(C)O)ccc23)c1 [Compound 191] |
| 0 to 25% | COc1ccc(C(=O)Nc2cccc3c(=O)n(CC(C)(C)O)ccc23)cc1Cl [Compound 192] |
| 0 to 25% | CCOc1cccc(C(=O)Nc2cccc3c(=O)n(CC(C)(C)O)ccc23)c1 [Compound 193] |
| 0 to 25% | CC(C)(O)Cn1ccc2c(NC(=O)CCc3ccccc3Cl)cccc2c1=O [Compound 194] |
| 0 to 25% | CC(C)(O)Cn1ccc2c(NC(=O)CCc3ccc4c(c3)OCO4)cccc2c1=O [Compound 195] |
| 0 to 25% | Cc1cc(C(=O)Nc2cccc3c(=O)n(CC(C)(C)O)ccc23)ccc1Cl [Compound 196] |

Same assay, conditions: 0.1 μM compound; differentiated THP-1 cells, BzATP 250 uM; "*" symbols; read-out: IL-1β % Inhib. @ 0.3 or 0.1 uM

| inhibition at 0.1 µM | SMILES |
| --- | --- |
| 51 to 75% | CC(C)(O)Cn1ccc2c(NC(=O)c3ccccc3Cl)cccc2c1=O [Compound 197] |
| 0 to 25% | CC(C)(O)Cn1ccc2c(NC(=O)c3ccc(Cl)cc3Cl)cccc2c1=O [Compound 198] |
| 0 to 25% | CC(C)(O)Cn1ccc2c(NC(=O)c3cc(Cl)ccc3Cl)cccc2c1=O [Compound 199] |
| 0 to 25% | Cc1ccccc1C(=O)Nc1cccc2c(=O)n(CC(C)(C)O)ccc12 [Compound 200] |
| 0 to 25% | Cc1ccc(C(=O)Nc2cccc3c(=O)n(CC(C)(C)O)ccc23)c(C)c1 [Compound 201] |
| 0 to 25% | Cc1ccc(C)c(C(=O)Nc2cccc3c(=O)n(CC(C)(C)O)ccc23)c1 [Compound 202] |
| 0 to 25% | CC(C)(O)Cn1ccc2c(NC(=O)c3cc(Cl)cc(Cl)c3)cccc2c1=O [Compound 203] |
| 0 to 25% | CC(C)(O)Cn1ccc2c(NC(=O)c3cccc4ccccc34)cccc2c1=O [Compound 204] |
| 0 to 25% | CC(C)(O)Cn1ccc2c(NC(=O)Cc3cccc4ccccc34)cccc2c1=O [Compound 205] |
| 0 to 25% | CC(C)(O)Cn1ccc2c(NC(=O)c3ccc4ccccc4c3)cccc2c1=O [Compound 206] |
| 0 to 25% | CC(C)(O)Cn1ccc2c(NC(=O)Cc3ccccc3F)cccc2c1=O [Compound 207] |
| 0 to 25% | CC(C)(O)Cn1ccc2c(NC(=O)Cc3ccccc3Cl)cccc2c1=O [Compound 208] |
| 0 to 25% | COc1ccccc1CC(=O)Nc1cccc2c(=O)n(CC(C)(C)O)ccc12 [Compound 209] |
| 0 to 25% | COc1ccc(OC)c(CC(=O)Nc2cccc3c(=O)n(CC(C)(C)O)ccc23)c1 [Compound 210] |
